Source: EP0471221B1, “Herbicidal compositions” (IDEMITSU KOSAN COMPANY LIMITED, priority 1990, dated 1992)

Tests used:
Galium aparine L. = experiment: Test on post-emergence treatment (greenhouse pots, foliage spray); assay type: in vivo; conditions: after 20 days
Text: (§1) By uniformly blending 97 parts of clay (trademark: JIKURAITO, manufactured by JIKURAITO KOGYO) as the carrier, 1.5 parts of alkylaryl sulfonate (trademark: NEOPELEX, manufactured by Kao Atlas Co., Ltd.) as the surfactant, 1.5 parts of nonionic and anionic surfactant (trademark: Solpol 800A, manufactured by Toho Chemical Industry Co., Ltd.) and grinding into a powder, a carrier for wettable powders was obtained.
(§2) By uniformly blending 90 parts of this carrier for wettable powders and 10 parts of the triazine derivative shown in Table 1 (Compounds A-1 through A-7) or 10 parts of the thiocarbamate type herbicide shown in Table 2 (Compounds B) and grinding into a powder, wettable powders were obtained.
(§3) Furthermore, the carrier for wettable powders containing the triazine derivative obtained above was blended with the carrier for wettable powders containing the thiocarbamate type herbicide in definite amounts (ratios as active ingredients), uniformly kneaded and ground into powders to give wettable powders.
(§4) Wagner's pots of 1/2000 ares were filled with soil from upland fields and planted with weed seeds of Alopecurus myosuroides, Galium aparine L., Veronica hederifolia and Viola arvensis and crop seeds of wheat, barley and oat. The seeds were then covered with soil and cultivated in a greenhouse. An aqueous suspension of a definite amount of the herbicide obtained in Formulation Example 6 was uniformly sprayed onto the foliage of 1.5 to 2.5 leaf stage of these weeds and 3 leaf stage of the crops at a spray volume corresponding to 100 liters/10 ares. Then, cultivation was performed in the greenhouse. After 20 days, crop injury and the herbicidal effect on the weeds were evaluated according to the criterion described below.
(§5) The herbicidal rate described above was determined according to the following equation by measuring the raw weight of weed on the ground in the treated group and the raw weight of weed on the ground in the untreated group. [formula]
(§6) Some data were extracted from the results shown in Table 3 and the synergistic effect of the triazine derivative and the thiocarbamate type herbicide was examined on Galium aparine L. and Viola arvensis according to the following method. [formula] Q a : found data (%) of herbicidal rate when treated at a dosage corresponding to a g/10 ares using the triazine derivative alone as active ingredient Q b : found data (%) of herbicidal rate when treated at a dosage corresponding to b g/10 ares using the thiocarbamate type herbicide alone as active ingredient Q E : expected value [Limpel, L.E., P.H. Schuldt and D. Lamont, Proc. NEWCC, 16, 48-53 (1962)] Herein, when the found data (herbicidal rate) of the herbicidal obtained by mixing the triazine derivative and the thiocarbamate type herbicide is larger than Q E, it can be said that the herbicidal activity is synergistic.

Viola arvensis = experiment: as above; assay type: in vivo; conditions: after 20 days
Text: as §1, §2, §3, §4, §5, §6

[1] = triazine derivative alone, 10 g/10a
[2] = triazine derivative alone, 5 g/10a
[3] = thiocarbamate type herbicide alone, 100 g/10a

| Structure (SMILES) | Percent control of Galium aparine L.(%) (Galium aparine L.; [1]) | Percent control of Viola arvensis(%) (Viola arvensis; [1]) | Percent control of Galium aparine L.(%) (Galium aparine L.; [2]) | Percent control of Viola arvensis(%) (Viola arvensis; [2]) | further results |
| --- | --- | --- | --- | --- | --- |
| CC(Nc1nc(N)nc(C(C)(C)F)n1)c1cc2ccccc2o1 (stereo not drawn) [A₁, 2-amino-4-[1-(benzofuran-2'-yl)ethylamino]-6-(α-fluoro,α-methylethyl)-s-triazine] | 38% | 54% | – | – | – |
| CC(F)c1nc(N)nc(NC(C)c2cc3ccccc3o2)n1 (stereo not drawn) [A₂, 2-amino-4-[1-(benzofuran-2'-yl)ethylamino]-6-(α-fluoroethyl)-s-triazine] | – | – | 37% | 68% | – |
| CC(Nc1nc(N)nc(C(C)(C)F)n1)c1cc2ccccc2s1 (stereo not drawn) [A₃, 2-amino-4-[1-(benzothiophen-2'-yl)ethylamino]-6-(α-fluoro,α-methylethyl)-s-triazine] | 56% | 64% | – | – | – |
| Cc1cccc(OCC(C)Nc2nc(N)nc(C(C)(C)F)n2)c1 (stereo not drawn) [A₄, 2-amino-4-(α-fluoro,α-methylethyl)-6-[2-(3'-methylphenoxy)-1-methylethylamino]-s-triazine] | 62% | 74% | – | – | – |
| CC(COc1cccc(F)c1)Nc1nc(N)nc(C(C)(C)F)n1 (stereo not drawn) [A₅, 2-amino-4-(α-fluoro,α-methylethyl)-6-[2-(3'fluorophenoxy)-1-methylethylamino]-s-triazine] | – | – | 38% | 72% | – |
| Cc1cc(C)cc(OCC(C)Nc2nc(N)nc(C(C)(C)Cl)n2)c1 (stereo not drawn) [A₆, 2-amino-4-(α-chloro,α-methylethyl)-6-[2-(3',5'-dimethylphenoxy)-1-methylethylamino]-s-triazine] | 64% | 78% | – | – | – |
| Cc1cc(C)cc(OCC(C)Nc2nc(N)nc(C(C)(C)F)n2)c1 (stereo not drawn) [A₇, 2-amino-4-(α-fluoro,α-methylethyl)-6-[2-(3',5'-dimethylphenoxy)-1-methylethylamino]-s-triazine] | – | – | 40% | 63% | – |
| CCCN(CCC)C(=O)SCc1ccccc1 [B, S-benzyldipropyl thiocarbamate, reference compound] | – | – | – | – | Percent control of Galium aparine L.(%) (Galium aparine L.; [3]): 36%; Percent control of Viola arvensis(%) (Viola arvensis; [3]): 19% |
